Like-named read-outs stand apart in the source and are kept apart here.
Assays:
[1] = tested on: cortical neurons; assay: LDH release after 1 hr oxygen-glucose deprivation combined with acidosis; type: cell-based, mouse; details: n=8-11
Experimental: To determine if activation of ASICs in ischemic conditions produced greater neuronal injury, neurons from P1 ASIC1^+/+ and ASIC1^−/− mice were subjected to 1 hr acid treatment under oxygen and glucose deprivation.
(§1) Following anesthesia with halothane, cerebral cortices were dissected from PI ASIC1^+/+ and ASIC1^−/− mice and incubated with 0.05% trypsin-EDTA for 10 min at 37° C. Tissues were then triturated with fire-polished glass pipettes and plated on poly-L-ornithine-coated 24-well plates or 25×25 mm glass coverslips at a density of 2.5×10^5 cells per well or 10^6 cells per coverslip. Neurons were cultured with MEM supplemented with 10% horse serum (for E16 cultures) or Neurobasal medium supplemented with B27 (for P1 cultures) and used for electrophysiology and toxicity studies after 12 days. Glial growth was suppressed by addition of 5-fluoro-2-deoxyuridine and uridine, yielding cultured cells with ˜90% neurons as determined by NeuN and GFAP staining (data not shown).
[…]. Oxygen-glucose deprivation was terminated after 1 hr by replacing the glucose-free ECF with Neurobasal medium and incubating the cultures in a normal cell culture incubator.
Aarts et al. (2003) have recently studied ischemia molded by prolonged oxygen-glucose deprivation (2 hr) but without acidosis. […]

[2] = tested on: cortical neurons; type: cell-based, mouse; details: preincubation 1 μM, n=6
[3] = tested on: cortical neurons cultured from ASIC+/+ and ASIC1-/- mice; assay: LDH release in neurons cultured from ASIC+/+ and ASIC1-/- mice; type: cell-based, mouse; details: ASIC1-/- neurons, 1 hr 1 mM NMDA+10 μM glycine, Mg2+-free pH 7.4 ECF, n=4
Experimental: as §1
Cells were treated with either pH 7.4 or 6.0 ECF for 1 hr. LDH release was measured 24 hr after acid incubation. […] Background absorbance at 620 was subtracted.

[4] = mouse, in vivo
Experimental: We have, therefore, measured brain pH continuously with a fiber optic pH sensor in the ipsilateral and contralateral parietal cortex of mice immediately after the removal of the middle cerebral artery suture, to determine the degree, distribution, and the time course of acidosis following focal ischemia. Cerebral pH was evaluated in sham-operated animals, in vehicle-treated animals, in PcTX venom-treated animals, and in sodium bicarbonate treated animals. Values are mean±SE (n=3 for each group).
(§2) Cerebral blood flow was monitored by transcranial laser doppler. All surgical procedures were performed under an operating stereomicroscope.
For continuous measurement of pH in the brain, a fiber optic pH micro system (pHOptica, WPI) was used. This system has a pH range between 5 and 9, and the resolution is ±0.003 units. A glass-fiber with its pH-sensitive tip ([…]) was stereotaxically implanted into the brain immediately after the middle cerebral artery occlusion at the following coordinates from the bregma: 2.4 mm laterally, 0.1 posteriorly and 2.2 mm deep. pH was continuously measured for 6 h. The instrument was calibrated with standard solutions (pH 4.0, 5.0, 6.0, 7.0, 8.0, and 9.0) before and after the experiments. […] Changes in pH values were evaluated after PcTX and NaHCO3 intracerebroventricularly or intravenous administration 2 hours after occlusion.

[5] = tested on: transient focal ischemia (middle cerebral artery occlusion); details: mouse, in vivo; for percentage of the infarct: iv
Experimental: Ischemia was induced by introducing a coated filament (6.0; Doccol) from the external carotid artery into the internal carotid artery and advancing it into the arterial Will's Circle, thereby occluding the middle cerebral artery (32). Rectal and temporalis muscle temperature was maintained at 37° C.±0.5° C. with a thermostatically controlled heating pad and lamp. Cerebral blood flow was monitored by transcranial laser doppler. All surgical procedures were performed under an operating stereomicroscope.

[6] = tested on: 60 min middle cerebral artery occlusion; assay: Mouse 60 min middle cerebral artery occlusion, memantine with or without PcTX venom, infarct volume; type: in vivo; details: n=5
[7] = tested on: transient focal ischemia (middle cerebral artery occlusion); type: in vivo, mouse; details: for percentage of the infarct volume: vehicle 50.6±2.3
Experimental: To investigate the potential interaction between NMDA and ASIC1a blockade on infarct volume, memantine was administered before or after PcTX administration in rodents subjected to 60 min of middle cerebral artery occlusion and evaluated one day after ischemia induction.
as §2
Rodents were treated with saline, PcTX and/or memantine according to the following schedule: Saline IP administered 30 min after middle cerebral artery occlusion; PcTX 15: (0.5 μL, 500 ng/mL) administered 15 min after middle cerebral artery occlusion; Memantine 30 (1 mL, 10 mg/kg) administered 30 min after middle cerebral artery occlusion; PcTx15 min/Memantine 30, 60 120; PcTX (0.5 μL, 500 ng/mL) administration 15 min after middle cerebral artery occlusion followed by IP Memantine (1 mL, 10 mg/kg) administration 30 min, 60 min, or 120 min after PcTX. Memantinel 5/PcTx 180, 300, 360: Memantine (1 mL, 10 mg/kg) administration IP 15 min after middle cerebral artery occlusion followed by intracerebraventricular PcTX (0.5 μL, 500 ng/mL) 180 min, 300 min, or 360 min after Memantine. N=5 animals per group.
FIG. 18 is a graph presenting exemplary data from experiments measuring the percentage of brain infarct volume as a function of the time (in minutes) of administration of memantine after mid-cerebral artery occlusion, in accordance with aspects of the present teachings. Memantine's time window (1 mL, 10 mg/kg). Memantine (0.1 mL, 10 mg/kg) or saline solution (1 mL) was IP-administered 15 minutes, 1 h, or 3 h after ischemia induction. […] Each column represents the mean±SE of the percentage of the infarct compared to the ipsilateral hemisphere.

COC(=O)[C@@H](N)CCCNC(=N)N[N+](=O)[O-] [L-NAME]
combined 1 hr oxygen-glucose deprivation/acidosis-induced neuronal injury ([1]; 300 μM): neither trolox (500 μM) nor L-NAME (300 μM) had significant effect

C/C=C(/C)C(=O)O[C@H]1C(C)=C2[C@H]([C@@H]1OC(=O)CCCCCCC)[C@@](C)(OC(C)=O)C[C@H](OC(=O)CCC)[C@@]1(O)[C@H]2OC(=O)[C@@]1(C)O [thapsigargin]
sustained component of acid-induced Ca2+ increase [2]: partially inhibited

CN[C@H](CC(=O)O)C(=O)O [NMDA]
LDH release at 24 hr, % of maximal [3]: 84.8%±1.4%

Cc1c(C)c2c(c(C)c1O)CCC(C)(C(=O)O)O2 (centres unmarked) [trolox]
combined 1 hr oxygen-glucose deprivation/acidosis-induced neuronal injury ([1]; 500 μM): neither trolox (500 μM) nor L-NAME (300 μM) had significant effect

O=C([O-])O.[Na+] [bicarbonate, sodium bicarbonate]
brain pH value after administration [4]: 7.25±0.25 | modifying brain pH ([4]; iv): less effective | relative infarct volume [5]: 34.5±1.27% | percentage of the infarct ([5]; 2.5 mg/kg): 61.51±5.03% | percentage of the infarct ([5]; 5 mg/kg): 55.4±7.89%

CC12CC3CC(C)(C1)CC(N)(C3)C2 [memantine]
infarct volume ([6]; ASIC1-/- mice, memantine ip): 27.7±1.6 mm^3 | infarct volume ([6]; ASIC+/+ mice, 10 mg/kg ip, saline 101.4±9.4): 61.6±12.7 mm^3 | infarct volume ([6]; memantine 10 mg/kg ip + aCSF icv, control 123.6±5.3): 73.8±6.9 mm^3 | percentage of the infarct volume ([7]; 1 mg/kg 1 h after MCAO, n=5): 55.4±5.2 | percentage of the infarct volume ([7]; 10 mg/kg 1 h after MCAO, n=5): 41.0±3.4 | percentage of the infarct volume ([7]; 30 mg/kg 1 h after MCAO, n=5): 43.4±3.8 | survival of treated ischemic mice ([7]; 100 mg/kg, n=5, all the mice): died | infarct volume ([7]; memantine alone ip 1 h after MCAO (time window, FIG. 18), saline 50.6±2.3, n=5): 40.3±4.3%
